Earlier results in US20060258633A1, “Amorphous tegaserod maleate” (priority 2005, published 2006).

Conditions: white to off-white crystalline powder

For `CCCCCNC(=N)N/N=C/c1c[nH]c2ccc(OC)cc12.O=C(O)/C=C\C(=O)O` [Tegaserod maleate, 3-(5-methoxy-1H-indole-3-ylmethylene)-N-pentylcarbazimidamide hydrogen meleate], the solubility in ethanol (ethanol) is listed as “slightly soluble” and the solubility in water (water) is listed as “very slightly soluble”.
